Target: mt G12D KRas (Homo sapiens, UniProt P01116, G12D)
Assay: Mant-GDP assay (inhibition of GTP displacing mant-GDP)
Format: binding
Settings: for displacing mant-GDP from mt G12D KRas (in words): assay optimization, FIG. 1A

mt G12D KRas, sequence (P01116 1-188 isoform P01116-2 G12D): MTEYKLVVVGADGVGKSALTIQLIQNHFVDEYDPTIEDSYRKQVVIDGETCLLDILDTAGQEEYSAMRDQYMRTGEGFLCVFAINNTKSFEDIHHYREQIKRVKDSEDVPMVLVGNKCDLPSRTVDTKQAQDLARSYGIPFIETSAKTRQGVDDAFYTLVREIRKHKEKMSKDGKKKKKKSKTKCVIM

| Structure (SMILES) | displacing mant-GDP from mt G12D KRas (in words) | IC50 (GTP titration in the absence of compounds, FIG. 3C, read-out: IC50 of GTP to displace mant-GDP) |
| --- | --- | --- |
| Nc1nc2c(ncn2[C@@H]2O[C@H](COP(=O)(O)OP(=O)(O)O)[C@@H](O)[C@H]2O)c(=O)[nH]1 [GDP] | very effective |  |
| Nc1nc2c(ncn2[C@@H]2O[C@H](COP(=O)(O)OP(=O)(O)OP(=O)(O)O)[C@@H](O)[C@H]2O)c(=O)[nH]1 [GTP] | very effective | 620 nM |

Source: US11352370B2, “Mutant KRAS inhibitors” (H. LEE MOFFITT CANCER CENTER AND RESEARCH INSTITUTE, INC., priority 2015, dated 2022)
